Converted amounts (≈) assume the structure as drawn.
Experiments:
[1] = physchem; type: physicochemical
Method: Different solvent compositions with different properties that are commonly used as a basis for pharmaceutical compositions were added to known quantities of the indicated compound and mixed. If a clear solution was not obtained, additional solvent was added and the solution mixed. […] For example “50-100” would indicate that the compound was not soluble at 100 mg/mL but upon additional solvent to have a final concentration of 50 mg/mL, the compound was soluble.

[2] = Stability in sodium acetate buffer pH 6 at two temperatures, reversed-phase HPLC; type: physicochemical; details: for % Purity of the Compound, 6 Hours 25° C. / % Purity of the Compound, 6 Hours 40° C.: sodium acetate buffer pH 6, 6 hours; for Change in Main Peak % Area After 18 H Incubation, 25° C. / Change in Main Peak % Area After 18 H Incubation, 40° C.: sodium acetate buffer pH 6, 18 h; for % Purity of the Compound, 18 Hours 25° C. / % Purity of the Compound, 18 Hours 40° C.: sodium acetate buffer pH 6, 18 hours; for % Purity of the Compound, Initial: sodium acetate buffer pH 6, initial
Method: Three other compounds were also tested, Compound 2, Compound 3, and Compound 4. Compounds 2, 3, and 4 are modifications of Compound 1 at the sidechain of Cysteine 7. Compound 2 has a disulfide bond attached to Cysteine 7, Compound 3 has thioester bond attached to Cysteine 7, and Compound 4 has an ethyl group attached to the sidechain sulfur of Cysteine 7. The peptides were incubated in sodium acetate buffer pH 6 at two temperature conditions and then analyzed via reversed-phase HPLC. The chromatography performed was with an Ascentis Phenyl 2.7 micron column (4.6×150 mm). The binary gradient (1 ml/min) was 36% to 56% B in 40 minutes followed by an increase to 65% B in 5 minutes where A=0.1% trifluoroacetic acid in water and B=0.1% trifluoroacetic acid in acetonitrile.

[3] = In vitro stability of compounds in rat plasma (37° C.); type: in vitro ADME; details: for half-life: rat, plasma
Method: The in vitro stability of Compounds 1-4 in rat plasma at 37° C. was examined to give an indication of stability in a whole animal model (Table 6).

[4] = Compound blood levels after subcutaneous administration in the rat (LC/MS); type: in vivo; details: in vivo, sc, 7.5 mg/kg
Method: Compounds 1-4 were tested in rats to determine compound pharmacokinetics and hepcidin mimetic activity in vivo as measured by serum iron reduction. The effectiveness of the compounds for serum iron reduction should correlate with the treatment of iron metabolism disorders. Individual compounds, in this example and the following examples were generally formulated in DSPE-PEG(2000) (SUNBRIGHT® DSPE-020CN, NOF America Corporation) (30 mg/mL) and dosed subcutaneously at a compound dose of 7.5 mg/kg.
The compound was prepared according to the following typical preparation. The dosing solution was prepared (7.5 mg compound/mL in clear solution) by weighing the compound into vial and an aliquot of ethanol is added into the vial and mixture vortexed. DSPE-020CN was added and the solution was vortexed, and, if necessary, the mixture was heated at 37° C. for 10-15 minutes to fully dissolve the DSPE-020CN. The ethanol was evaporated with nitrogen gas stream for 1-3 hours. Sterile water was then added and the mixture was vortexed or, if necessary, sonicated to give a clear solution.
After subcutaneous injection compound quantities in blood were measured over the subsequent 24 hours via LC/MS.

[5] = type: physicochemical
Method: An additional critical aspect in drug delivery is retention of solubility with time (physical stability), especially under refrigerated conditions. […] Unexpectedly, clear differences in physical stability were observed between Compound 5 and other compounds with only minor changes in sequence (e.g. Compounds 7 and 8). The combination of unexpected solubility of greater than 100 mg/mL in mildly acidic conditions and lack of significant changes in solution character after refrigeration, are unexpected and advantageous for a pharmaceutical product.

[6] = Solubility (mg/mL) at Ambient Temperature, 30% PEG 400
[7] = Solubility (mg/mL) at Ambient Temperature, 50% EtOH/water
[8] = Solubility (mg/mL) at Ambient Temperature, Water
[9] = pH 2.3, Solubility (mg/mL) at Ambient Temperature, 10% Tween 80 pH 2.3-2.8
[10] = pH 2.7, Solubility (mg/mL) at Ambient Temperature, 50% propylene glycol, pH 2.7
[11] = pH 4.5, Solubility (mg/mL) at Ambient Temperature, 10% Tween 80 pH 4.5-5.0
[12] = pH 5.5, Solubility (mg/mL) at Ambient Temperature, 10% Tween 80 pH 5.5-6.0

Row | Compound | solubility [1, 6] | solubility [1, 7] | solubility [1, 8] | solubility [1, 9] | solubility [1, 10] | solubility [1, 11] | solubility [1, 12] | significant degradation peaks observed by HPLC [2] | % Purity of the Compound, 6 Hours 25° C. [2] | % Purity of the Compound, 6 Hours 40° C. [2] | Change in Main Peak % Area After 18 H Incubation, 25° C. [2] | Change in Main Peak % Area After 18 H Incubation, 40° C. [2] | % Purity of the Compound, 18 Hours 25° C. [2] | % Purity of the Compound, 18 Hours 40° C. [2] | % Purity of the Compound, Initial [2] | In vitro plasma stability (Ratio of compound/benfluorex (std) degradation) [3] | half-life [3] | AUC(0-t) [4] | blood levels of Compound 1 (metabolite) after dosing the labelled compound [4] | further results
1 | CCCCCCCCCCCCCCCCNC(=O)CN(CC(N)=O)C(=O)CCCCCNC(=O)[C@H](Cc1c[nH]c2ccccc12)NC(=O)[C@H](CCCNC(=N)N)NC(=O)[C@H](CSSC)NC(=O)[C@H](CCCNC(=N)N)NC(=O)[C@@H]1CCCN(C(=O)[C@@H](NC(=O)[C@H](Cc2c[nH]cn2)NC(=O)[C@@H](NC(=O)CNCC(=O)O)[C@@H](C)O)C(c2ccccc2)c2ccccc2)C1 [Compound 7] | > 35 mg/mL | > 100 mg/mL | 50 to 100 mg/mL (≈ 27.7 to 55.4 mM) | > 100 mg/mL | > 100 mg/mL | > 50 mg/mL | 50 to 100 mg/mL (≈ 27.7 to 55.4 mM) |  |  |  |  |  |  |  |  |  |  |  |  | 
2 | CCCCCCCCCCCCCCCCNC(=O)CN(CC(N)=O)C(=O)CCCCCNC(=O)[C@H](Cc1c[nH]c2ccccc12)NC(=O)[C@H](CCCNC(=N)N)NC(=O)[C@H](CSSC)NC(=O)[C@H](CCCNC(=N)N)NC(=O)C1CCN(C(=O)[C@@H](NC(=O)[C@H](Cc2c[nH]cn2)NC(=O)[C@@H](NC(=O)CNCC(=O)O)[C@@H](C)O)C(c2ccccc2)c2ccccc2)CC1 [Compound 8] | 25 to 35 mg/mL (≈ 13.9 to 19.4 mM) | > 100 mg/mL | 50 to 100 mg/mL (≈ 27.7 to 55.4 mM) | 40 to 70 mg/mL (≈ 22.2 to 38.8 mM) | 30 to 50 mg/mL (≈ 16.6 to 27.7 mM) | > 50 mg/mL | 50 to 100 mg/mL (≈ 27.7 to 55.4 mM) |  |  |  |  |  |  |  |  |  |  |  |  | 
3 | CCCCCCCCCCCCCCCCNC(=O)CN(CC(N)=O)C(=O)CCCCCNC(=O)C(Cc1c[nH]c2ccccc12)NC(=O)C(CCCNC(=N)N)NC(=O)C(CSSC)NC(=O)C(CCCNC(=N)N)NC(=O)CC1CCCN1C(=O)C(NC(=O)C(Cc1c[nH]cn1)NC(=O)C(NC(=O)CNCC(=O)O)C(C)O)C(c1ccccc1)c1ccccc1 (centres unmarked) [Compound 2] | 25 to 35 mg/mL (≈ 13.9 to 19.4 mM) | > 100 mg/mL | 50 to 100 mg/mL (≈ 27.7 to 55.4 mM) | 60 to 100 mg/mL (≈ 33.3 to 55.4 mM) | 50 to 100 mg/mL (≈ 27.7 to 55.4 mM) | 50 to 100 mg/mL (≈ 27.7 to 55.4 mM) | 25 to 30 mg/mL (≈ 13.9 to 16.6 mM) | no significant degradation peak | 99.6% | 99.4% | −0.2% | −0.1% | 99.3% | 99.4% | 99.5% | 0.98 | 40 min | 1010 ng·h/mL | unexpectedly higher than expected | degradation after 18 hours at 40° C. (in words) [2]: little degradation observed; change of solubility with pH (in words) ([1]; pH 4): marked decrease in solubility above pH 4; solubility ([1]; pH 5, Solubility (mg/mL) at Ambient Temperature, 2% Tween 80 pH 5): < 50 mg/mL; solubility ([1]; pH 6.4, Solubility (mg/mL) at Ambient Temperature, 2% Tween pH 6.4): < 10 mg/mL; Solution Appearance after 7 days Storage at 2-8° C., 2% Tween 80 pH 5 ([5]; 2% Tween 80 pH 5): Gel; Solution Appearance after 7 days Storage at 2-8° C., 2% Tween pH 6.4 ([5]; 2% Tween pH 6.4): Gel; Solution Appearance after 7 days Storage at 2-8° C., 10% Tween 80 pH 2.3-2.8 ([5]; 10% Tween 80 pH 2.3-2.8): Gel; Solution Appearance after 7 days Storage at 2-8° C., 10% Tween 80 pH 4.5-5.0 ([5]; 10% Tween 80 pH 4.5-5.0): Gel; Solution Appearance after 7 days Storage at 2-8° C., 30% PEG 400 ([5]; 30% PEG 400): Gel; Solution Appearance after 7 days Storage at 2-8° C., 50% EtOH/water ([5]; 50% EtOH/water): Gel; Solution Appearance after 7 days Storage at 2-8° C., 50% propylene glycol, pH 2.7 ([5]; 50% propylene glycol, pH 2.7): Gel; Solution Appearance after 7 days Storage at 2-8° C., Water ([5]; Water): Gel
4 | CCCCCCCCCCCCCCCCNC(=O)CN(CC(N)=O)C(=O)CCCCCNC(=O)[C@H](Cc1c[nH]c2ccccc12)NC(=O)[C@H](CCCNC(=N)N)NC(=O)[C@H](CSSC)NC(=O)[C@H](CCCNC(=N)N)NC(=O)CCNC(=O)[C@@H](NC(=O)[C@H](Cc1c[nH]cn1)NC(=O)[C@@H](NC(=O)CNCC(=O)O)[C@@H](C)O)C(c1ccccc1)c1ccccc1 [Compound 10] | < 10 mg/mL | < 10 mg/mL | < 25 mg/mL | 15 to 20 mg/mL (≈ 8.5 to 11.3 mM) | < 20 mg/mL | < 10 mg/mL | < 10 mg/mL |  |  |  |  |  |  |  |  |  |  |  |  | solubility characteristics compared to the other compounds (in words) [1]: does not improve solubility characteristics
5 | CCCCCCCCCCCCCCCCNC(=O)CN(CC(N)=O)C(=O)CCCCCNC(=O)C(Cc1c[nH]c2ccccc12)NC(=O)C(CCCNC(=N)N)NC(=O)C(CSC(C)=O)NC(=O)C(CCCNC(=N)N)NC(=O)CC1CCCN1C(=O)C(NC(=O)C(Cc1c[nH]cn1)NC(=O)C(NC(=O)CNCC(=O)O)C(C)O)C(c1ccccc1)c1ccccc1 (centres unmarked) [Compound 3] |  |  |  |  |  |  |  | multiple major peaks | 96.9% | 84.9% | −2.3% | −30% | 95.1% | 67.2% | 97.3% | 1.78 | 73 min | 12200 ng·h/mL | comparable to the levels observed when just Compound 1 was dosed | degradation after 18 hours at 40° C. [2]: 30%; blood levels relative to those observed in Compound 1 [4]: 5-9 times
6 | CCCCCCCCCCCCCCCCNC(=O)CN(CC(N)=O)C(=O)CCCCCNC(=O)[C@H](Cc1c[nH]c2ccccc12)NC(=O)[C@H](CCCNC(=N)N)NC(=O)[C@H](CSSC)NC(=O)[C@H](CCCNC(=N)N)NC(=O)C[C@@H]1CCCN1C(=O)[C@@H](NC(=O)[C@H](Cc1c[nH]cn1)NC(=O)[C@@H](NC(=O)CN(CC(=O)O)C(=O)CNC(C)=O)[C@@H](C)O)C(c1ccccc1)c1ccccc1 [Compound 9] | 20 to 35 mg/mL (≈ 10.5 to 18.4 mM) | > 100 mg/mL | 50 to 100 mg/mL (≈ 26.3 to 52.5 mM) | 30 to 50 mg/mL (≈ 15.8 to 26.3 mM) | 30 to 50 mg/mL (≈ 15.8 to 26.3 mM) | 25 to 50 mg/mL (≈ 13.1 to 26.3 mM) | 25 to 35 mg/mL (≈ 13.1 to 18.4 mM) |  |  |  |  |  |  |  |  |  |  |  |  | 

Source: US9315545B2, “Hepcidin mimetic peptides and uses thereof” (MERGANSER BIOTECH, INC., priority 2014, dated 2016)
